According to ChEMBL document CHEMBL3396950, “Enantioselective synthesis of dictyoceratin-A (smenospondiol) and -C, hypoxia-selective growth inhibitors from marine sponge” (Bioorg Med Chem, 2015):

Tested on: DU-145
Assay: Antiproliferative activity against human DU145 cells assessed as growth inhibition treated after 12 hrs hypoxic condition and incubated additional 24 hrs under hypoxic condition by MTT assay
Format: functional, cell-based

Q: Which inhibition does the source give for `C=C1CCC[C@@H]2[C@@](C)(Cc3cc(C(=O)OC)ccc3O)[C@H](C)CC[C@@]12C` here?
A: Dose-dependent effect

Q: `C=C1CCC[C@H]2[C@](C)(Cc3cc(C(=O)OC)ccc3O)[C@@H](C)CC[C@]12C` was tested. Which inhibition did it give?
A: Dose-dependent effect

Q: How did the inhibition turn out when `C=C1CCC[C@H]2[C@](C)(Cc3cc(C(=O)OC)cc(O)c3O)[C@@H](C)CC[C@]12C` was run?
A: Dose-dependent effect

Q: `C=C1CCC[C@@H]2[C@@](C)(Cc3cc(C(=O)OC)cc(O)c3O)[C@H](C)CC[C@@]12C` was tested. Which inhibition did it give?
A: Dose-dependent effect
